For the assay, the system named is ULK3 KO U266 MM cells. The assay can be described thus: ULK3 KO U266 in vivo model. Further details: species or system mice. The conditions noted are these: ULK3 KO U266, 10 mg/kg/day subcutaneously, M-F from day 20. The text has this:
Supplementary Figure 7. ULK3 ablation suppresses MM cell growth. A. Immunoblotting for ULK3 expression in parental, NTC CTRL and ULK3 KO U266 cells. Of note, NTC CTRL and ULK3 KO were used for the in vivo ULK3 KO model. Densitometric quantification values are annotated on the blot. B. Mice (n = 20/group) were tail vein injected […]
with 1 x106 NTC CTRL and ULK3 KO U266 MM cells. […]
onset of the disease compared to NTC CTRL . (C) Representative confocal microscopy images of formalin fixed, paraffin embedded tumors (5-micron sections), stained for human mitochondria (hMITO) as a readout of MM cells colocalization. Alexa Fluor Plus 488 goat anti-mouse were used as secondary antibody. (D) MTS showing the inhibitory profile of MA9060 on NTC CTRL and ULK3 KO for U266 cell line. Treatment with MA9060 (0-100 uM) for 48h show reduced activity of MA9060 in ULK3 KO cell lines. E. Mice were divided respectively in two groups, vehicle control (n = 10, β-HCD Captisol) or MA9-060 (n = 10). Treatment started at day 20 (M-F, 10 mg/kg/day subcutaneously). MA9-060 treatment improves overall survival in the NTC CTRL arm (median 41 days post-tumor […]
38 For MA9 therapy efficacy, mice were treated with vehicle (n=10) or MA9 (10 mg/kg/day, 39 subcutaneously, M-F from day 20; n=10) (Supplementary Fig. 7E, F). Survival and toxicity 40 (weight, clinical signs) was monitored. […]

As to `Cc1cnc(Nc2ccc(C3CCN(C)CC3)c(F)c2)nc1Nc1ccc(Cl)c(NS(=O)(=O)C(C)(C)C)c1` [MA9060], the median overall survival turned out to be 87 days.

The record behind these values is publication PMC12363935, “Unc-51 Like Kinase 3 (ULK3) is essential for autophagy and cell survival in multiple myeloma” (Research Square, 2025).
